Patent US8258099B2, “Pin1-modulating compounds and methods of use thereof” (Max-Planck-Gesellschaft zur Foerderung der Wissenschaften …, priority 2004, dated 2012)
Square brackets hold non-standard residues; d marks the D form. Peptide text beside a SMILES is read from it. * marks the point of attachment. Biotin = O=C1N[C@H]2[C@H](CS[C@H]2CCCCC(=O)*)N1; d(pT) = C[C@H](OP(=O)(O)O)[C@@H](N)C(=O)O; 2Nal = N[C@@H](Cc1ccc2ccccc2c1)C(=O)O; Bta = N[C@@H](Cc1csc2ccccc12)C(=O)O; Pip = O=C(O)[C@@H]1CCCCN1

Legend:
[1] = test system: authentic XlPin1; test: Pull down assay, X. laevis embryo lysate; format: binding; conditions: no phosphatase inhibitors, streptavidin sepharose
Method: (§1) FIGS. 5A-B depict pull down assays showing peptide 16 binds to authentic XlPin1 (A) and hPin1 from HeLa cells (B). FIG. 5A depicts the indicated concentrations of peptide 16 were incubated with X. laevis embryo extract in the absence of phosphatase inhibitors. Peptide 16/XlPin1-complex was then extracted from the respective mixture using streptavidin sepharose. Samples were analyzed regarding coextracted XlPin1 by SDS PAGE followed by western blot analysis. Untreated lysate (input) was loaded as a control. Authentic XlPin1 was detected using an anti hPin1 PPIase domain antiserum followed by incubation with a horseradish peroxidase-conjugated secondary antibody. Visualization was done using the SuperSignal® substrate. FIG. 5B indicates concentrations of peptide 16 were incubated with HeLa cell lysate in the absence of phosphatase inhibitors. The peptide 16/hPin1-complex was then precipitated from the respective mixture using streptavidin sepharose and isolated from the supernatant. Extracted proteins and the supernatants were then analyzed by SDS PAGE. […] After western blotting, hPin1 was detected using an anti hPin1 PPIase domain antiserum as primary antibody and a horseradish peroxidase-conjugated secondary antibody. […]
(§2) Peptide 16 (see Table III) was incubated with HeLa cell or X. laevis embryo lysate for 1 hour at 4° C. […] The samples were then heated to 95° C. and analyzed by SDS PAGE. […]

[2] = Stability against cellular phosphatases and proteases in HeLa cell lysate; format: in vitro ADME; conditions: discussion statement (FIG. 4)
Method: FIG. 4 depicts the stability of peptide 17 against cellular phosphatases and proteases. Peptide 17 was incubated for 3 hours in HeLa cell lysate in the absence of phosphatase and protease inhibitors. The mixture was then analyzed by capillary electrophoresis (short dashed line). As controls, the untreated peptide 17 (solid line) and its nonphosphorylated derivative (dotted line) were used. The temperature of the capillary thermostating system was kept at 16° C. Separation buffer was 50 mM sodium phosphate, pH 7.0. Signals were detected at 220 nm.
Peptide 17 was incubated with HeLa cell lysate for 3 h and analyzed with capillary electrophoresis using UV detection at 220 nm on a P/ACE MDQ (Beckman Coulter, Palo Alto, Calif.) system. Fused-silica capillaries (Polymicro Technologies) of 40 cm length at an operation voltage of 20 kV were used. As references, untreated peptide 17 and its nonphosphorylated derivative were used. The samples were hydrodynamically injected with 3.45 kPa for 10 s. 50 mM sodium phosphate buffer (pH 7.0) was used as separation buffer. The system temperature was kept at 16° C.
The stability of peptides 15 and 17 in cytoplasmic extracts from HeLa cells was investigated using MALDI-TOF mass spectrometry and capillary electrophoresis, respectively. In the cytosolic incubation mixture, streptavidin sepharose beads served to isolate peptide 15 fragments after prolonged incubation. […] Therefore, phosphopeptides are useless for evaluating Pin1 functions in vivo unless dephosphorylation can be avoided.

[3] = target: T1, authentic hPin1 (Homo sapiens, UniProt Q13526); test: Pull down assay, HeLa cell lysate; format: binding; conditions: streptavidin sepharose
T1 construct: endogenous in cells; host or cells: HeLa cell lysate
T1 sequence (Q13526 whole entry): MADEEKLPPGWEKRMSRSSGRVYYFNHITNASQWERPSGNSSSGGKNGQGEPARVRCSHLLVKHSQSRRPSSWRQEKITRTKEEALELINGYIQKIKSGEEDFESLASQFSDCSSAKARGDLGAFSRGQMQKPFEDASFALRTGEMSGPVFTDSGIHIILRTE
Method: as §1, §2

[4] = test system: X. laevis embryos; test: Microinjection in X. laevis embryos, cell division; format: in vivo; conditions: microinjection at stage 2
Method: FIG. 8 depicts the blocking of cell division by the injection of peptide 17 in X. laevis embryos. 50-300 pmol of peptide 17 or 300 pmol of its nonphosphorylated derivative (control) dissolved in 10 nl PBS buffer were microinjected in the animal half of X. laevis embryos at stage 2 of development. Embryos with large and/or apoptotic appearing cells surrounded by normally developing cells were counted after further 5 hours (stage 8-9) of development. […] Each value is the average of four independent experiments.
FIGS. 9A-F depicts phenotypic analysis of X. laevis embryos after injection of peptide 17. 300 pmol of peptide 17 or its nonphosphorylated derivative dissolved in 10 nl PBS buffer were injected in the animal half of X. laevis embryos at stage 2 of development. 1.5 hour at stage 6 (A), 2.5 hours at stage 7 (B) and 4-5 hours at stage 8-9 (C, D) after injection enlarged cells became visible. Cells that are blocked in cell division are marked with a white arrow. Controls of uninjected embryos of stage 8-9 and embryos that were injected with 300 pmol of the nonphosphorylated derivative of peptide 17 are shown in panels E and F. The site where the nonphosphorylated derivative of peptide 17 was injected is marked with a white arrow (F).
FIGS. 10A-D depict the rescue of peptide 17 caused cell division block in X. laevis embryos by hPin1 (A, B) and different hPin1 variants (C, D). FIG. 10A depicts the time course of V5-tagged hPin1 expression was analyzed by preparation of X. laevis embryo lysate 1, 2 and 4 hours after injection of 1, 2 or 3 ng of V5-tagged hPin1 mRNA. In every case, the injected volume was 10 nl. Lysates were prepared in lysis buffer containing phosphatase and protease inhibitors. Samples were separated by SDS PAGE followed by western blotting. Endogenous XlPin1 and V5-tagged hPin1 were detected using an anti hPin1 PPIase domain antiserum as primary antibody followed by incubation with a horseradish peroxidase-conjugated secondary antibody. Visualization was done using the SuperSignal® substrate. […] In every case, the whole volume of injection was 10 nl. The indicated amount of the mRNA was injected in the animal half of 30 embryos at stage 2 of development. Embryos with large and/or apoptotic appearing cells surrounded by normally developed cells were counted after additional 5 hours of development (stage 8-9). […] Each percentage of vital embryos shown in the figure is the average of four independent experiments. FIG. 10C indicates the expression of V5-tagged hPin1 variants was evaluated by preparation of embryo lysate after 4 hours of injection of the respective mRNA (2 ng) in X. laevis embryos. Lysates were prepared in lysis buffer containing phosphatase and protease inhibitors. Samples were separated using SDS PAGE followed by western blot analysis. Endogenous XlPin1 and injected V5-tagged hPin1 variants were detected using an anti hPin1 PPIase domain antiserum as primary antibody and a horseradish peroxidase-conjugated secondary antibody. Visualization was done by a chemiluminescent reaction using the SuperSignal® substrate (Pierce). FIG. 10D depicts 250 pmol of peptide 17 was coinjected with 2 ng mRNA of the indicated V5-tagged hPin1 variant (whole volume 10 nl) in the animal half of 30 X. laevis embryos at stage 2 of development. Results were analyzed as described for FIG. 10B. Each percentage of vital embryos shown in the figure is the average of four independent experiments.
Microinjection was done into the animal half of X. laevis embryos at stage 2 of development. In every case, the injection volume was 10 nl. Immunofluorescence studies of frozen X. laevis embryo sections were performed as previously described (Julius et al., 2000). Ten-micrometer cryosections of stage 8 embryos were labelled using a monoclonal anti hPin1 antibody (mouse) followed by incubation with Alexa Fluor 546™-conjugated anti mouse antibody of goat serum (Molecular Probes). […]

[5] = test system: endogenous XlPin1; test: Immunofluorescence of microinjected X. laevis embryos; format: in vivo; conditions: stage 8
Method: FIG. 11 depicts the colocalization of peptide 16 and endogenous XlPin1 in X. laevis embryos. 100 pmol and 250 pmol of peptide 16 dissolved in 10 nl PBS buffer were injected in X. laevis embryos at stage 2 of development. In a control experiment, 10 nl of the pure PBS buffer were injected. Embryos were fixed at stage 8, embedded and cryosectioned. Peptide 16 is stained in green using the Oregon Green™ 488-labeled NeutrAvidin biotin-binding protein. Endogenous XlPin1 is stained in red using a monoclonal anti hPin1 antibody (mAb hPin1) from mouse and an Alexa Fluor 546™-conjugated secondary antibody. Overlapping patterns are shown in yellow in the merged images. Nuclei are stained with DAPI.
Microinjection was done into the animal half of X. laevis embryos at stage 2 of development. In every case, the injection volume was 10 nl. Immunofluorescence studies of frozen X. laevis embryo sections were performed as previously described (Julius et al., 2000). Ten-micrometer cryosections of stage 8 embryos were labelled using a monoclonal anti hPin1 antibody (mouse) followed by incubation with Alexa Fluor 546™-conjugated anti mouse antibody of goat serum (Molecular Probes). […] Samples were analyzed using an Axioplan epifluorescence microscope with fluorescein and Cy3 selective filter sets. […]

SMILES: CC(=O)N[C@@H](CCCCNC(=O)CCCC[C@@H]1SC[C@@H]2NC(=O)N[C@@H]21)C(=O)N[C@@H](C)C(=O)N[C@@H](C)C(=O)N[C@@H](Cc1csc2ccccc12)C(=O)N[C@@H](C(=O)N1CCCC[C@H]1C(=O)N[C@@H](Cc1ccc2ccccc2c1)C(=O)N[C@@H](CCC(N)=O)C(N)=O)[C@H](C)OP(=O)(O)O [Peptide 16, Ac-Lys(N^ε-biotinoyl)-Ala-Ala-Bth-D-Thr(PO3H2)-Pip-Nal-Gln-NH2] (Ac-K(Biotin)AA[Bta][d(pT)][Pip][2Nal]Q-NH2)
- coprecipitation of authentic XlPin1 [1]: coprecipitated with peptide 16 in a dose-dependent manner
- stability in cytosol [2]: sufficiently stable
- pull down of authentic hPin1 [3]: pulled down
- effect on development of the embryos [4]: cell cycle blockage and embryonic death
- colocalization with XlPin1 ([5]; 100 pmol injected): clear nuclear colocalization
- effect on embryonic tissue ([5]; 250 pmol injected): distortions of the embryonic tissue
